{"source": "patent US20040266704A1", "about": "“Method comprising irinotecan for treatment of breast cancer” (priority 2003, published 2004)", "origin": "cited, not measured here", "key": {"[1]": {"tested_on": "advanced or recurrent breast cancer", "conditions": "intravenous drip-infusion; patients with advanced breast cancer"}, "advanced breast cancer": {"tested_on": "advanced breast cancer", "conditions": "intravenous; patients with prior endocrine therapy and prior chemotherapy including adriamycin or other anthracyclines"}, "recurrent breast cancer": {"tested_on": "recurrent breast cancer", "conditions": "intravenous; four cases, previous chemotherapy including doxorubicin"}, "[2]": {"tested_on": "anthracycline resistant metastatic breast cancer", "conditions": "intravenous salvage therapy; twelve patients, prior chemotherapy including an anthracycline"}, "[3]": {"tested_on": "advanced and metastatic breast cancer pretreated with doxorubicin and docetaxel", "conditions": "intravenous"}, "[4]": {"tested_on": "refractory advanced breast cancer", "conditions": "IV, two schedules; 103 patients who failed an anthracycline, a taxane or both; preliminary data"}}}
{"smiles": "CCc1c2c(nc3ccc(OC(=O)N4CCC(N5CCCCC5)CC4)cc13)-c1cc3c(c(=O)n1C2)COC(=O)[C@]3(O)CC", "note": "[CPT-11, [1,4′-Bipiperidine]-1′-carboxylic acid (4S)-4,11-diethyl-3,4,12,14-tetrahydro-4-hydroxy-3,14-dioxo-1H-pyrano[3′,4′:6,7]indolizino[1,2-b]quinolin-9-yl ester]", "values": [{"measurement": "clinical efficacy against advanced or recurrent breast cancer", "setting": "[1]", "value": "effective"}, {"measurement": "clinical efficacy in advanced breast cancer", "setting": "advanced breast cancer", "value": "promising drug"}, {"measurement": "clinical efficacy against advanced or recurrent breast cancer", "setting": "recurrent breast cancer", "value": "effective agent"}, {"measurement": "treatment results in metastatic breast cancer", "setting": "[2]", "value": "satisfactory"}, {"measurement": "clinical efficacy in the salvage setting", "setting": "[3]", "value": "inactive"}, {"measurement": "toxicity profile", "setting": "[4]", "value": "acceptable toxicity profile"}]}
